Assay results: patent US6737383B1, “Herbicidal oxadiazolidines” (priority 1999, dated 2004)

Legend:
wheat = experiment: Test B pre/postemergence wheat; type: in vivo, Triticum aestivum
Outline: (§1)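 Herbicidal effect was estimated by eye on a ten-point control scale after plants spent twelve to sixteen days in a greenhouse following soil or foliar treatment. Foliar sprays targeted plants at one to four leaves; all doses were formulated in a non-phytotoxic solvent with surfactant.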

bedstraw = experiment: Test B pre/postemergence bedstraw; type: in vivo, Galium aparine; conditions: Preemergence
Outline: as §1

purple nutsedge = experiment: Test B pre/postemergence purple nutsedge; type: in vivo, Cyperus rotundus
Outline: as §1

smallflower flatsedge = experiment: Test B flood test smallflower flatsedge; type: in vivo, Cyperus difformis; conditions: for S. Flatsedge plant response rating (0 to 10 scale, 0 is no effect, 10 is complete control): Rate 125 g/ha, under heading Pre-emergence
Outline: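 Each value is a visual injury score relative to controls, with 10 meaning complete control and 0 no effect. Evaluation took place twelve to sixteen days after the 2-leaf-stage plants were treated and kept in the greenhouse.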

[1] = Postemergence, Rate 125 g/ha, scale of 0 to 10 where 0 is no effect and 10 is complete control
[2] = Postemergence, Rate 500 g/ha, scale of 0 to 10 where 0 is no effect and 10 is complete control
[3] = Postemergence, Rate 1000 g/ha, scale 0 to 10 (0 no effect, 10 complete control)
[4] = Preemergence, Rate 125 g/ha, scale of 0 to 10 where 0 is no effect and 10 is complete control
[5] = Preemergence, Rate 500 g/ha, scale of 0 to 10 where 0 is no effect and 10 is complete control
[6] = Rate 1000 g/ha, Preemergence, scale 0 to 10 (0 no effect, 10 complete control)
[7] = Rate 125 g/ha, scale of 0 to 10 where 0 is no effect and 10 is complete control
[8] = Rate 500 g/ha, scale of 0 to 10 where 0 is no effect and 10 is complete control
[9] = flood test species, visual evaluation after twelve to sixteen days
[10] = Rate 250 g/ha, Pre-emergence (flood test species), scale 0 to 10, 0 is no effect, 10 is complete control
[11] = Rate 500 g/ha, Pre-emergence section of Table B, 0 to 10 scale (0 no effect, 10 complete control)
[12] = Postemergence, Rate 62 g/ha, scale 0 to 10, 0 is no effect, 10 is complete control
[13] = Preemergence, Rate 62 g/ha, scale of 0 to 10 where 0 is no effect and 10 is complete control
[14] = Preemergence, Rate 250 g/ha, scale 0 to 10 (0 no effect, 10 complete control)

CCOP(=O)(Cn1c(=O)on(C(=O)N(c2ccc(Cl)cc2)C(C)C)c1=O)OCC [Compound 599]
Plant response rating, Wheat (wheat; [1]): 0 | Wheat plant response rating (wheat; Postemergence, Rate 250 g/ha, scale of 0 to 10, 0 is no effect, 10 is complete control): 0 | Plant response rating, Wheat (wheat; [2]): 0 | Wheat plant response rating (wheat; [3]): 0 | Wheat plant response rating (wheat; [4]): 0 | Plant response rating, Wheat (wheat; [5]): 0 | Plant response rating, Wheat (wheat; [6]): 0 | Bedstraw plant response rating (bedstraw; [7]): 0 | Bedstraw plant response rating (0 to 10 scale) (bedstraw; Rate 250 g/ha): 0 | Bedstraw plant response rating (bedstraw; [8]): 0 | Plant response rating, Bedstraw (bedstraw; Rate 1000 g/ha, scale 0 to 10 (0 no effect, 10 complete control)): 8 | Plant response rating, Nutsedge (purple nutsedge; [2]): 0 | Nutsedge plant response rating (purple nutsedge; [3]): 0 | Nutsedge plant response rating (purple nutsedge; [4]): 0 | Plant response rating, Nutsedge (purple nutsedge; [5]): 0 | Plant response rating, Nutsedge (purple nutsedge; [6]): 0 | S. Flatsedge plant response rating (smallflower flatsedge; Pre-emergence, Rate 1000 g/ha, scale 0 to 10 (0 no effect, 10 complete control)): 0 | S. Flatsedge plant response rating (0 to 10 scale, 0 is no effect, 10 is complete control) (smallflower flatsedge; [9]): 0 | S. Flatsedge plant response rating (smallflower flatsedge; [10]): 0 | S. Flatsedge plant response rating (smallflower flatsedge; [11]): 0

C#CC=CC(C)(C)n1c(=O)on(C(=O)N(c2ccccc2)C(C)C)c1=O [Compound 655]
Plant response rating, Wheat (wheat; [12]): 0 | Wheat plant response rating (wheat; [1]): 0 | Wheat plant response rating (wheat; [13]): 0 | Wheat plant response rating (wheat; [4]): 0 | Plant response rating, Wheat (wheat; [14]): 0 | Plant response rating, Wheat (wheat; [5]): 0 | Wheat plant response rating (wheat; Rate 500 g/ha, Postemergence, scale 0 to 10, 0 is no effect, 10 is complete control): 0 | Bedstraw plant response rating (bedstraw; Rate 62 g/ha, scale of 0 to 10 where 0 is no effect and 10 is complete control): 0 | Bedstraw plant response rating (bedstraw; [7]): 0 | Plant response rating, Bedstraw (bedstraw; Rate 250 g/ha, scale 0 to 10 (0 no effect, 10 complete control)): 0 | Plant response rating, Bedstraw (bedstraw; [8]): 0 | Plant response rating, Nutsedge (purple nutsedge; [12]): 0 | Nutsedge plant response rating (purple nutsedge; [1]): 0 | Nutsedge plant response rating (purple nutsedge; [13]): 0 | Nutsedge plant response rating (purple nutsedge; [4]): 0 | Plant response rating, Nutsedge (purple nutsedge; [14]): 0 | Plant response rating, Nutsedge (purple nutsedge; [5]): 0 | Plant response rating, S. Flatsedge (0 to 10 scale, 0 is no effect, 10 is complete control) (smallflower flatsedge; Rate 62 g/ha, flood test species, Pre-emergence, visual evaluation after twelve to sixteen days): 0 | S. Flatsedge plant response rating (0 to 10 scale, 0 is no effect, 10 is complete control) (smallflower flatsedge; [9]): 0 | S. Flatsedge plant response rating (smallflower flatsedge; [10]): 0 | S. Flatsedge plant response rating (smallflower flatsedge; [11]): 0
